Results: ChEMBL document CHEMBL1201862, “PubChem BioAssay data set” (2004)
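96-well plates; 48 h exposure; 5 concentrations. Endpoints by linear interpolation between flanking doses. Not reached: highest tested concentration assigned. At the GI50, growth is halved.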 The source made the active and inactive calls. No stated cut-off is given here; in the data, active = GI50 up to about 1.1 µM and inactive = higher.

Key:
Experiment in all cases: NCI anticancer screen, dose series, 48 h
[1] = system: CAKI-1
[2] = system: IGROV-1
[3] = system: KM12
[4] = system: LOX IMVI
[5] = system: MDA-MB-231
[6] = system: MDA-N
[7] = system: NCI-H23
[8] = system: NCI-H460
[9] = system: NCI-H522
[10] = system: PC-3
[11] = system: SK-MEL-2
[12] = system: SW-620
[13] = system: T47D
[14] = system: U-251
[15] = system: UACC-257
[16] = system: UO-31
[17] = system: OVCAR-3
[18] = system: RPMI-8226
[19] = system: HL-60

| Compound | GI50 [1] | GI50 [2] | GI50 [3] | GI50 [4] | GI50 [5] | GI50 [6] | GI50 [7] | GI50 [8] | GI50 [9] | GI50 [10] | GI50 [11] | GI50 [12] | GI50 [13] | GI50 [14] | GI50 [15] | GI50 [16] | GI50 [17] | GI50 [18] | GI50 [19] |
| --- | --- | --- | --- | --- | --- | --- | --- | --- | --- | --- | --- | --- | --- | --- | --- | --- | --- | --- | --- |
| COC(=O)CSC1CC(=O)c2c(Cl)sc(Cl)c21 (centres undefined) | > 100 µM (inactive) | > 100 µM (inactive) | > 100 µM (inactive) | > 100 µM (inactive) | > 100 µM (inactive) | > 100 µM (inactive) | > 100 µM (inactive) | > 100 µM (inactive) | > 100 µM (inactive) | > 100 µM (inactive) | > 100 µM (inactive) | > 100 µM (inactive) | > 100 µM (inactive) | > 100 µM (inactive) | > 100 µM (inactive) | > 100 µM (inactive) |  |  |  |
| O=c1[nH]nc(-c2ccccc2)n1/N=C/c1c(O)ccc2ccccc12 |  | > 100 µM (inactive) | 6.75 µM (inactive) | 46.9 µM (inactive) | 83.6 µM (inactive) | 73.6 µM (inactive) | 26.8 µM (inactive) |  | 91.2 µM (inactive) | 37.8 µM (inactive) | 62.7 µM (inactive) | 37.8 µM (inactive) |  | 26.1 µM (inactive) | 68.5 µM (inactive) | 36 µM (inactive) | 17.3 µM (inactive) | 82.2 µM (inactive) |  |
| C/C=C1\CC2C(=O)CCC2C2c3ccccc3OC12 (centres undefined) | > 100 µM (inactive) | > 100 µM (inactive) | > 100 µM (inactive) | > 100 µM (inactive) | > 100 µM (inactive) | 0.0718 µM (active) | > 100 µM (inactive) | > 100 µM (inactive) | > 100 µM (inactive) | > 100 µM (inactive) | > 100 µM (inactive) | > 100 µM (inactive) |  | > 100 µM (inactive) | > 100 µM (inactive) | > 100 µM (inactive) | > 100 µM (inactive) | > 100 µM (inactive) | 87.7 µM (inactive) |
| [N-]=[N+]=C(C(=O)N1CCCC1=O)S(=O)(=O)c1ccccc1 |  | > 100 µM (inactive) | > 100 µM (inactive) | 42.9 µM (inactive) | > 100 µM (inactive) | 44 µM (inactive) | 72.9 µM (inactive) | 39 µM (inactive) | 30.9 µM (inactive) | > 100 µM (inactive) | 62.5 µM (inactive) | > 100 µM (inactive) |  | > 100 µM (inactive) | > 100 µM (inactive) | > 100 µM (inactive) | 76 µM (inactive) | 48.3 µM (inactive) | 55.1 µM (inactive) |
| COc1ccccc1NC(=S)Nc1cccc(C)n1 | 88.5 µM (inactive) | 31.8 µM (inactive) | 25.6 µM (inactive) | > 100 µM (inactive) |  |  |  | > 100 µM (inactive) | 2.84 µM (inactive) | > 100 µM (inactive) | > 100 µM (inactive) | > 100 µM (inactive) | > 100 µM (inactive) | > 100 µM (inactive) | > 100 µM (inactive) | > 100 µM (inactive) | > 100 µM (inactive) | > 100 µM (inactive) | > 100 µM (inactive) |
| Clc1cc(Br)c2c3c(c(Br)cc(Cl)c13)C(Br)=C2Br |  | 16.7 µM (inactive) | 45.8 µM (inactive) | 16.9 µM (inactive) | 28.1 µM (inactive) | 42.3 µM (inactive) |  | 40.7 µM (inactive) | 17.2 µM (inactive) | 26.7 µM (inactive) | 29.9 µM (inactive) | 34.2 µM (inactive) |  | 43.8 µM (inactive) | > 100 µM (inactive) | 44.6 µM (inactive) | 30.3 µM (inactive) | 21.6 µM (inactive) | 19.1 µM (inactive) |
| O=C(CCC/C(CC(=O)c1ccc(Br)cc1)=N\O)Nc1ccccc1 |  | 57.3 µM (inactive) | > 100 µM (inactive) | > 100 µM (inactive) |  |  | > 100 µM (inactive) | > 100 µM (inactive) |  |  | > 100 µM (inactive) | > 100 µM (inactive) |  | > 100 µM (inactive) | 67.9 µM (inactive) | > 100 µM (inactive) | > 100 µM (inactive) | 10.7 µM (inactive) | 65.2 µM (inactive) |
| CCNc1nc2ccccc2nc1NCC | > 100 µM (inactive) | > 100 µM (inactive) | > 100 µM (inactive) | > 100 µM (inactive) | > 100 µM (inactive) | > 100 µM (inactive) | > 100 µM (inactive) | > 100 µM (inactive) | > 100 µM (inactive) | > 100 µM (inactive) | > 100 µM (inactive) | > 100 µM (inactive) |  | > 100 µM (inactive) | > 100 µM (inactive) | > 100 µM (inactive) | > 100 µM (inactive) | > 100 µM (inactive) | > 100 µM (inactive) |
| CN(C)CCNC(=O)c1cccc(N(C)C(=O)c2ccccc2)c1[N+](=O)[O-] | > 100 µM (inactive) | > 100 µM (inactive) | > 100 µM (inactive) |  | > 100 µM (inactive) | > 100 µM (inactive) | > 100 µM (inactive) | > 100 µM (inactive) | > 100 µM (inactive) | > 100 µM (inactive) | > 100 µM (inactive) | > 100 µM (inactive) | > 100 µM (inactive) | > 100 µM (inactive) | > 10 µM (inactive) | > 100 µM (inactive) | > 100 µM (inactive) |  | > 100 µM (inactive) |
| CCOC(=O)Cc1csc2[n+]1C(=O)/C(=C\c1cccc(Cl)c1Cl)S2 | 23.6 µM (inactive) | 20.1 µM (inactive) | 15.4 µM (inactive) | 18.4 µM (inactive) | 25.9 µM (inactive) | 17.7 µM (inactive) | 13.3 µM (inactive) | 14.9 µM (inactive) | 14.8 µM (inactive) | 13.3 µM (inactive) | 10.6 µM (inactive) | 18.6 µM (inactive) |  | 16.6 µM (inactive) | 20.1 µM (inactive) | 12.7 µM (inactive) | 7.05 µM (inactive) |  | 19.5 µM (inactive) |
| Cc1ccccc1-n1c(=O)c2ncn(CCCl)c2n(-c2ccccc2C)c1=S | > 100 µM (inactive) | > 100 µM (inactive) | > 100 µM (inactive) | > 100 µM (inactive) | > 100 µM (inactive) |  | > 100 µM (inactive) | > 100 µM (inactive) | 38.5 µM (inactive) | 73.1 µM (inactive) | > 100 µM (inactive) | > 100 µM (inactive) | > 100 µM (inactive) | > 100 µM (inactive) | > 100 µM (inactive) | > 100 µM (inactive) | > 100 µM (inactive) | > 100 µM (inactive) | > 100 µM (inactive) |
| COc1cc2nc(Nc3cccc(Br)c3)nc(Nc3cccc(Br)c3)c2cc1OC | 15.7 µM (inactive) | 15.1 µM (inactive) | 18.9 µM (inactive) | 16.7 µM (inactive) | 21.8 µM (inactive) | 18.7 µM (inactive) | 17.7 µM (inactive) | 24.3 µM (inactive) | 16.7 µM (inactive) | 20.4 µM (inactive) | 18.4 µM (inactive) | 24.2 µM (inactive) | 17.1 µM (inactive) | 19.2 µM (inactive) | > 10 µM (inactive) | 16 µM (inactive) | 16.6 µM (inactive) |  |  |
| C/C(CC(=O)Nc1cccc([N+](=O)[O-])c1)=N\NC(=O)C[n+]1ccccc1 |  | > 100 µM (inactive) | > 100 µM (inactive) | > 100 µM (inactive) |  |  | > 100 µM (inactive) | > 100 µM (inactive) | > 100 µM (inactive) |  | > 100 µM (inactive) | > 100 µM (inactive) |  | > 100 µM (inactive) | > 100 µM (inactive) | > 100 µM (inactive) | > 100 µM (inactive) | > 100 µM (inactive) | > 100 µM (inactive) |
| CCCCOC(=O)C(=O)C(CC(CC)C(=O)c1ccccc1)C(=O)C=C(C)C (centres undefined) | > 100 µM (inactive) | > 100 µM (inactive) | > 100 µM (inactive) | > 100 µM (inactive) | > 100 µM (inactive) | > 100 µM (inactive) | > 100 µM (inactive) | > 100 µM (inactive) | > 100 µM (inactive) | > 100 µM (inactive) | > 100 µM (inactive) | > 100 µM (inactive) |  | > 100 µM (inactive) | > 100 µM (inactive) | > 100 µM (inactive) | > 100 µM (inactive) |  | > 100 µM (inactive) |
| CN(CC(=O)O)c1ncc2c(n1)-c1ccccc1SC2 | > 100 µM (inactive) | > 100 µM (inactive) | > 100 µM (inactive) | > 100 µM (inactive) | > 100 µM (inactive) | > 100 µM (inactive) | > 100 µM (inactive) | > 100 µM (inactive) | > 100 µM (inactive) | > 100 µM (inactive) | > 100 µM (inactive) | > 100 µM (inactive) |  | > 100 µM (inactive) | > 100 µM (inactive) | > 100 µM (inactive) |  | > 100 µM (inactive) | > 100 µM (inactive) |
| O=c1[nH]n(Cc2ccccn2)c2ccc([N+](=O)[O-])cc12 | > 100 µM (inactive) | > 100 µM (inactive) | > 100 µM (inactive) | > 100 µM (inactive) | > 100 µM (inactive) | > 100 µM (inactive) | > 100 µM (inactive) | > 100 µM (inactive) | > 100 µM (inactive) | > 100 µM (inactive) | > 100 µM (inactive) | > 100 µM (inactive) |  | > 100 µM (inactive) | > 100 µM (inactive) | > 100 µM (inactive) | > 100 µM (inactive) | > 100 µM (inactive) | > 100 µM (inactive) |
| COc1ccc(-c2cc(-c3cc4cc(Br)ccc4nc3Cl)c(C#N)c(N)n2)cc1 | > 12.5 µM (inactive) | > 12.5 µM (inactive) | > 12.5 µM (inactive) | > 12.5 µM (inactive) |  | > 12.5 µM (inactive) | > 12.5 µM (inactive) |  | > 12.5 µM (inactive) | > 12.5 µM (inactive) | > 12.5 µM (inactive) | > 12.5 µM (inactive) | > 12.5 µM (inactive) |  |  | > 12.5 µM (inactive) | > 12.5 µM (inactive) | > 12.5 µM (inactive) | > 12.5 µM (inactive) |
